US20240207395A1, “ADJUVANT ACTIVITY ENHANCER AND ADJUVANT COMPOSITION” (priority 2021, published 2024)
Ends that are not written are not given here. C10PNA = 10-mer peptide nucleic acid with ten cytosine bases

Columns and labels:
[1] = system: B/Maryland/15/2016 strain (B/Victoria); type: in vivo, BALB/c mice; settings: for GMT (geometric mean IgG antibody titer) / GMT ratio to the non-adjuvanted group: BALB/c mice; for GMT (geometric mean IgG antibody titer): subcutaneous 0.1 mL, 0.6 μg HA/strain, serum 21 days after administration; for GMT ratio to the non-adjuvanted group: subcutaneous
[2] = system: A/Kansas/14/2017 strain (A/H3N2); type: in vivo, BALB/c mice; settings: for GMT (geometric mean IgG antibody titer) / GMT ratio to the non-adjuvanted group: BALB/c mice; for GMT (geometric mean IgG antibody titer): subcutaneous 0.1 mL, 0.6 μg HA/strain, serum 21 days after administration; for GMT ratio to the non-adjuvanted group: subcutaneous

Row | Substance | GMT (geometric mean IgG antibody titer) [1] | GMT ratio to the non-adjuvanted group ([1]; Day 21) | Subclass ratio of IgG1/IgG2a ([1]; Day 21) | GMT (geometric mean IgG antibody titer) [2] | GMT ratio to the non-adjuvanted group ([2]; Day 21) | Subclass ratio of IgG1/IgG2a ([2]; Day 21)
1 | 5′-[…]-3′ (SEQ ID NO: 9) [ODN1826] | 31152 | 2.1 | IgG2a dominant | 65838 | 5.1 | IgG2a dominant
2 | MIP-03: HIV TAT-derived peptide of 13 amino acids (SEQ ID NO: 1) covalently bound at its C-terminal to C10PNA (GRKKRRQRRRPPQ-C10PNA) | 25802 | 1.7 | – | 112071 | 8.7 | –
